The text below walks through data of ChEMBL document CHEMBL1140359, “Solid-phase synthesis and anti-infective activity of a combinatorial library based on the natural product anisomycin” (Bioorg Med Chem Lett, 2005).

In brackets after ≈: the same amount, converted by molar mass.

The test system of one assay is HEK293. Put plainly: Inhibitory concentration required to produce cytotoxicity against HEK293 cells. It counts as functional, cell-based. The note with it: Homo sapiens.
For assay [1], the system named is Candida albicans. The assay can be described thus: Percent inhibition against RG-1 mutant strain of Candida albicans at 15.5 uM. The format is functional.
Assay [2] deals with Candida albicans. Put plainly: Percent inhibition against efflux-deficient strain of Candida albicans at 15.5 uM. It counts as functional.
For assay [3], the system named is Staphylococcus aureus. The assay can be described thus: Percent inhibition against MraY/MurG in Staphylococcus aureus cell walls at 25 uM. It counts as functional.
The subject of assay [4] is Staphylococcus aureus. The assay can be described thus: Percent inhibition against MurPath in Staphylococcus aureus cell walls at the concentration of 25 uM. The format is functional.
In assay [5] the test system is Staphylococcus aureus. The assay can be described thus: Minimum inhibitory concentration against Staphylococcus aureus. The format is functional.

In general, IC50 refers to the concentration that gives 50% inhibition. A low value points to higher potency. The inhibition is the percentage by which the read-out fell short of the control. High values mean strong suppression, low ones little suppression. The compound `COc1ccc(C[C@@H]2[C@H](OC(=O)NCc3ccccc3)[C@@H](O)CN2C(=O)c2cc(C(F)(F)F)cc(C(F)(F)F)c2)cc1` showed an IC50 with HEK293 of 16 µM. The results for the inhibition at 15.5 µM in the assay with Candida albicans [1] and with Candida albicans [2] were 8% and 87%, respectively.
Turning to `CCCOC(=O)N1C[C@H](O)[C@@H](OC(=O)NCc2ccccc2-c2ccccc2)[C@H]1Cc1ccc(OC)cc1`, in the assay with HEK293, half-maximal inhibition (IC50) required 9 µM. The inhibition at 15.5 µM amounted to 10% with Candida albicans [1] and 96% in the assay with Candida albicans [2].
A word on the MIC: it is the lowest concentration that inhibits growth of the organism. Read a high MIC as a less susceptible organism. Regarding `COc1ccc(C[C@@H]2[C@H](OC(=O)NC3CCN(Cc4ccccc4)CC3)[C@@H](O)CN2C(=O)c2cc(-c3ccc(Cl)cc3)oc2C(F)(F)F)cc1`, the IC50 with HEK293 worked out at 8 µM. In addition, the inhibition at 25 µM in the assay with Staphylococcus aureus [3] and with Staphylococcus aureus [4] was < 5% each time. In the assay with Staphylococcus aureus [5], this compound displayed an MIC of 16 µg/mL (≈ 22.5 µM).
The compound `COc1ccc(C[C@@H]2[C@H](OC(=O)NCc3ccccc3-c3ccccc3)[C@@H](O)CN2C(=O)OCC(C)C)cc1` showed an IC50 with HEK293 of 11 µM. The figures for the inhibition at 15.5 µM with Candida albicans [1] and with Candida albicans [2] were < 5% and 82%, respectively.
The matching figures for `CCOC(=O)N1C[C@H](O)[C@@H](OC(=O)NCc2ccccc2-c2ccccc2)[C@H]1Cc1ccc(OC)cc1`: 22 µM, 14% and 83%.
For the compound `COc1ccc(C[C@@H]2[C@H](OC(=O)N3CCN(C)CC3)[C@@H](O)CN2C(=O)c2cc(-c3ccc(Cl)cc3)oc2C(F)(F)F)cc1`, the concentration for half-maximal inhibition (IC50) with HEK293 is 10 µM. Besides, the inhibition at 25 µM in the assay on Staphylococcus aureus [3] is 10%; in the assay on Staphylococcus aureus [4], < 5%. This compound gave a minimal inhibitory concentration (MIC) in the assay with Staphylococcus aureus [5] of 32 µg/mL (≈ 51.4 µM).
For the compound `COc1ccc(C[C@@H]2[C@H](OC(=O)NCc3ccc(F)cc3)[C@@H](O)CN2C(=O)c2cc(C(F)(F)F)cc(C(F)(F)F)c2)cc1`, the midpoint of inhibition in the assay with HEK293, the IC50, lay at 8 µM. For the same compound, the values for the inhibition at 15.5 µM in the assay with Candida albicans [1] and in the assay on Candida albicans [2] were < 5% and 87%, respectively.
Compound `COc1ccc(C[C@H]2NC[C@H](O)[C@H]2OC(C)=O)cc1` [ANISOMYCIN] had an IC50 with HEK293 of 0.02 µM. In the assay on Candida albicans [2], the inhibition at 15.5 µM was > 99%. Also, the MIC in the assay with Staphylococcus aureus [5] was > 32 µg/mL.
In the case of `COc1ccc(C[C@@H]2[C@H](OC(=O)NCc3ccccc3F)[C@@H](O)CN2C(=O)c2cc(C(F)(F)F)cc(C(F)(F)F)c2)cc1`, the half-maximal inhibitory concentration (IC50) with HEK293 was 10 µM. The inhibition at 15.5 µM was < 5% in the assay with Candida albicans [1] and 87% in the assay on Candida albicans [2].
With `COc1ccc(C[C@@H]2[C@H](OC(=O)N[C@@H]3CCN(Cc4ccccc4)C3)[C@@H](O)CN2C(=O)Nc2ccc(-c3ccccc3)cc2)cc1`, 2 µM corresponded to half-maximal inhibition in the assay with HEK293 (IC50). The inhibition at 25 µM with Staphylococcus aureus [3] was 20%; in the assay on Staphylococcus aureus [4], < 5%. The compound further showed a minimal inhibitory concentration (MIC) in the assay on Staphylococcus aureus [5] of 16 µg/mL (≈ 25.8 µM).
